Results on 4 compounds are retold here after paper PMC4322620 (Frontiers in Pharmacology, 2015).

Broadly, the EC50 is the concentration giving half of the maximal effect. A high value points to a less potent agent.

For one experiment, the target named is NTS1 (HT-29 cells) (Homo sapiens, UniProt P30989). Description: cell-based.
The target of experiment [1] is neurotensin receptors (HT-29 cells) (Homo sapiens, UniProt P30989). It is filed as cell-based.

Each structure is given as a SMILES string. Where a SMILES comes first, the peptide text is derived from it. [ ]: non-standard residue; d: D form. pGlu = O=C1CC[C@@H](C(=O)O)N1

Sequence of neurotensin receptors (HT-29 cells) (P30989 whole entry, looked up): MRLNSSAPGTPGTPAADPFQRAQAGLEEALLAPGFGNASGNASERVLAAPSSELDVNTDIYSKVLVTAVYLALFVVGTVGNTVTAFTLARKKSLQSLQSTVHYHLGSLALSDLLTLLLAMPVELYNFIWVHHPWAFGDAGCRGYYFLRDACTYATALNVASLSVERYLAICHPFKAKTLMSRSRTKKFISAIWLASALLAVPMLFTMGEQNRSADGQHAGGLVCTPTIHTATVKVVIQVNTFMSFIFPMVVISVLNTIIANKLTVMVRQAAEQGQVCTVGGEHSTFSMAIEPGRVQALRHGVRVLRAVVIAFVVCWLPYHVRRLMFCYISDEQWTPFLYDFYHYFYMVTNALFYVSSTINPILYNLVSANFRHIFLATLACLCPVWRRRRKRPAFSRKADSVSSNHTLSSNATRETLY
Sequence of NTS1 (HT-29 cells) (P30989 whole entry, looked up): as above

On NTS1 (HT-29 cells), `CC[C@H](C)[C@H](NC(=O)[C@H](Cc1ccc(O)cc1)NC(=O)[C@@H]1CCCN1C(=O)[C@H](CCCCN)NC(=O)[C@H](CCCCN)NC(=O)[C@@H]1CCCN1C(=O)[C@H](CCCCN)NC(=O)[C@H](CC(N)=O)NC(=O)[C@H](CCC(=O)O)NC(=O)[C@H](Cc1ccc(O)cc1)NC(=O)[C@H](CC(C)C)NC(=O)[C@@H]1CCC(=O)N1)C(=O)N[C@@H](CC(C)C)C(=O)O` [[K8, K9] NT] ([pGlu]LYENKPKKPYIL-OH) showed an EC50 of 20.2 ± 5.2 nM. Moreover, in experiment [1], the DC50 is 67 ± 18.1 nM and the DC50/EC50 is given as 3.3.
At NTS1 (HT-29 cells), `CC[C@H](C)[C@H](NC(=O)[C@H](Cc1ccc(O)cc1)NC(=O)[C@@H]1CCCN1C(=O)[C@H](CCCNC(=N)N)NC(=O)[C@H](CCCNC(=N)N)NC(=O)[C@@H]1CCCN1C(=O)[C@H](CCCCN)NC(=O)[C@H](CC(N)=O)NC(=O)[C@H](CCCCN)NC(=O)[C@H](Cc1ccc(O)cc1)NC(=O)[C@H](CC(C)C)NC(=O)[C@@H]1CCC(=O)N1)C(=O)N[C@@H](CC(C)C)C(=O)O` [[K4] NT] gave an EC50 of 1.4 ± 0.1 nM. Besides, in experiment [1], the DC50 turned out to be 30.5 ± 6.2 nM and the DC50/EC50 is recorded as 22.
The like results for `CC[C@H](C)[C@H](NC(=O)[C@H](Cc1ccc(O)cc1)NC(=O)[C@@H]1CCCN1C(=O)[C@H](CCCNC(=N)N)NC(=O)[C@H](CCCNC(=N)N)NC(=O)[C@@H]1CCCN1C(=O)[C@H](CCCCN)NC(=O)[C@H](CC(N)=O)NC(=O)[C@H](C)NC(=O)[C@H](Cc1ccc(O)cc1)NC(=O)[C@H](CC(C)C)NC(=O)[C@@H]1CCC(=O)N1)C(=O)N[C@@H](CC(C)C)C(=O)O` [[A4] NT] were, in that order, 0.6 ± 0.1 nM, 11.7 ± 1.4 nM and 20.
The like results for `CC[C@H](C)[C@H](NC(=O)[C@H](Cc1ccc(O)cc1)NC(=O)[C@@H]1CCCN1C(=O)[C@H](CCCNC(=N)N)NC(=O)[C@H](CCCNC(=N)N)NC(=O)[C@@H]1CCCN1C(=O)[C@H](CCC(=O)O)NC(=O)[C@H](CC(N)=O)NC(=O)[C@H](CCC(=O)O)NC(=O)[C@H](Cc1ccc(O)cc1)NC(=O)[C@H](CC(C)C)NC(=O)[C@@H]1CCC(=O)N1)C(=O)N[C@@H](CC(C)C)C(=O)O` [[E6] NT] were, in that order, 4.7 ± 1.4 nM, 57.5 ± 5.9 nM and 12.
